From patent publication US9156845B2, “4-(substituted amino)-7H-pyrrolo[2,3-d] pyrimidines as LRRK2 inhibitors” (Pfizer Inc., priority 2012, dated 2015)
Where two headings read alike, the source gives them in different places.

What was measured:
Assay in all cases: ActivX kinase probe assay (human PBMC)
Format in all cases: binding
ABL, ARG = tested on: ABL, ARG
RIPK3 = RIPK3 (Homo sapiens (Human), UniProt Q9Y572); conditions: RIPK3, read-out: percent inhibition
AMPKa1, AMPKa2 = tested on: AMPKa1, AMPKa2
PIP4K2C = PIP4K2C (Homo sapiens (Human), UniProt Q8TBX8); conditions: read-out: percent inhibition
PIP4K2C, sequence (Q8TBX8 whole entry, the tested form may be a part): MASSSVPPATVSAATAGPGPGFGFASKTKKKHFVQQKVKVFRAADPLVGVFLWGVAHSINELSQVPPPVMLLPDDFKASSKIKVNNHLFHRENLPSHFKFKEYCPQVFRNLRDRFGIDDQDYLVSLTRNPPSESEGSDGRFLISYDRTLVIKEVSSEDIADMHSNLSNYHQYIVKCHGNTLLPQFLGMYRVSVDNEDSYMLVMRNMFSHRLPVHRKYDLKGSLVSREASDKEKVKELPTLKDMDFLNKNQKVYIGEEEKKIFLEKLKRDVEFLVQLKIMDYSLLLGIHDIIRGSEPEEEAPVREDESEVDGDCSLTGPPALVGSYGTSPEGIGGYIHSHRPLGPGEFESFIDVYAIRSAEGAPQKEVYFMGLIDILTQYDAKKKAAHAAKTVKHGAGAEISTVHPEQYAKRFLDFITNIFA

RSKL1 domain1 = RSKL1 domain1 (Homo sapiens (Human), UniProt Q96S38); conditions: RSKL1 domain1, read-out: percent inhibition
MAP2K6 = MAP2K6 (Homo sapiens (Human), UniProt P52564); conditions: MAP2K6, read-out: percent inhibition
MAP2K6, sequence (P52564 whole entry): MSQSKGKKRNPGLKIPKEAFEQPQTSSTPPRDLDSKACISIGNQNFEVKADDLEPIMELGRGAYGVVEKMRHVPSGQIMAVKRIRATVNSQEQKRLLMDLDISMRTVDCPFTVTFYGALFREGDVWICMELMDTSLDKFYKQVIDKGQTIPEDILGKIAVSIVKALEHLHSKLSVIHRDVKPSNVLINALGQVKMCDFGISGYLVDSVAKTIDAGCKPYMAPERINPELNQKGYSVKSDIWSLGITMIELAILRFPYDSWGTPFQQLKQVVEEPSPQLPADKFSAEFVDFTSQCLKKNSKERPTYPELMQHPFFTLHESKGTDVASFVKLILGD

KSR1, KSR2 = tested on: KSR1, KSR2
FYN, SRC, YES = tested on: FYN, SRC, YES
CaMK1a = CaMK1a (Homo sapiens (Human), UniProt Q14012); conditions: CaMK1a, read-out: percent inhibition
CaMK1a, sequence (Q14012 whole entry): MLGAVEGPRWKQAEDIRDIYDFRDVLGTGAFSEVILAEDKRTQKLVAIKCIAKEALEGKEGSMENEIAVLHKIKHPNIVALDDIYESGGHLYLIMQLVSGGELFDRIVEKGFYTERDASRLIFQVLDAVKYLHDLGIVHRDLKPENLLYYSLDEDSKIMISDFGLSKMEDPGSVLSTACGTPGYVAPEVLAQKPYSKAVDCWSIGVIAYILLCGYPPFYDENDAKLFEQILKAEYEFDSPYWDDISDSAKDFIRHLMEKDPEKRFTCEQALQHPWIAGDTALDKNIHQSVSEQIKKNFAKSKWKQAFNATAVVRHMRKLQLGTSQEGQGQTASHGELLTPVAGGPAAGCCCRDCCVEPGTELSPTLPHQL

PCTAIRE2, PCTAIRE3 = tested on: PCTAIRE2, PCTAIRE3
PIK3CD = PIK3CD (Homo sapiens (Human), UniProt O00329); conditions: PIK3CD, read-out: percent inhibition
PIP5K3 = PIP5K3 (Homo sapiens (Human), UniProt Q9Y2I7); conditions: PIP5K3, read-out: percent inhibition
NuaK2 = NuaK2 (Homo sapiens (Human), UniProt Q9H093); conditions: NuaK2, read-out: percent inhibition
NuaK2, sequence (Q9H093 whole entry): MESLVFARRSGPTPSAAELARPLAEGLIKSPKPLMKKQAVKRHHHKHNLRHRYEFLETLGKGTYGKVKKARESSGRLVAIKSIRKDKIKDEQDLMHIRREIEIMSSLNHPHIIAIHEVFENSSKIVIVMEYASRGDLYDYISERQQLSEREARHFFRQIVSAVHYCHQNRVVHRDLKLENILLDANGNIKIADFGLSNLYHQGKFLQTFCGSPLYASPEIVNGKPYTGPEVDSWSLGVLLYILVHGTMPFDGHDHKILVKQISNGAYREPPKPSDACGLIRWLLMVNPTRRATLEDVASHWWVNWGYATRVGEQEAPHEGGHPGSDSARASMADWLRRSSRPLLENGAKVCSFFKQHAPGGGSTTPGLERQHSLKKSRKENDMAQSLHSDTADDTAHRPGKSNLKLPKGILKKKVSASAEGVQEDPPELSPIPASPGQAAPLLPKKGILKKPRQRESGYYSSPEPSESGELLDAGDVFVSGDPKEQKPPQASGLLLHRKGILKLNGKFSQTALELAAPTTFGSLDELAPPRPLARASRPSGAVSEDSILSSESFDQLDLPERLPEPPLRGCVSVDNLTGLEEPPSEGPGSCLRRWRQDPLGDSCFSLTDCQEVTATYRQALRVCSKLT

OSR1 = OSR1 (Homo sapiens (Human), UniProt O95747); conditions: OSR1, read-out: percent inhibition
MST4, YSK1 = tested on: MST4, YSK1
p38a = p38a (Homo sapiens (Human), UniProt Q16539); conditions: p38a, read-out: percent inhibition
p38a, sequence (Q16539 whole entry): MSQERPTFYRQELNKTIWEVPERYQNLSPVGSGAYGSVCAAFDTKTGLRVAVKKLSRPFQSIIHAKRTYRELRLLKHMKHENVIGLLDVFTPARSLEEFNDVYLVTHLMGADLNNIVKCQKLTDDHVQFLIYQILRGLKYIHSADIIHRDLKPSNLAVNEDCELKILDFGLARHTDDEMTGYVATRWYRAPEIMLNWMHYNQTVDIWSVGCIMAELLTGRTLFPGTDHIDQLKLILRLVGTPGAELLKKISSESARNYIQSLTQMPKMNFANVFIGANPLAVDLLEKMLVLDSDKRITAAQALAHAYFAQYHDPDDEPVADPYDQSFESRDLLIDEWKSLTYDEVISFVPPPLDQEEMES

MLKL = MLKL (Homo sapiens (Human), UniProt Q8NB16); conditions: MLKL, read-out: percent inhibition
ZAP70 = ZAP70 (Homo sapiens (Human), UniProt P43403); conditions: ZAP70, read-out: percent inhibition
GCK = GCK (Homo sapiens (Human), UniProt Q12851); conditions: GCK, read-out: percent inhibition
GCK, sequence (Q12851 whole entry): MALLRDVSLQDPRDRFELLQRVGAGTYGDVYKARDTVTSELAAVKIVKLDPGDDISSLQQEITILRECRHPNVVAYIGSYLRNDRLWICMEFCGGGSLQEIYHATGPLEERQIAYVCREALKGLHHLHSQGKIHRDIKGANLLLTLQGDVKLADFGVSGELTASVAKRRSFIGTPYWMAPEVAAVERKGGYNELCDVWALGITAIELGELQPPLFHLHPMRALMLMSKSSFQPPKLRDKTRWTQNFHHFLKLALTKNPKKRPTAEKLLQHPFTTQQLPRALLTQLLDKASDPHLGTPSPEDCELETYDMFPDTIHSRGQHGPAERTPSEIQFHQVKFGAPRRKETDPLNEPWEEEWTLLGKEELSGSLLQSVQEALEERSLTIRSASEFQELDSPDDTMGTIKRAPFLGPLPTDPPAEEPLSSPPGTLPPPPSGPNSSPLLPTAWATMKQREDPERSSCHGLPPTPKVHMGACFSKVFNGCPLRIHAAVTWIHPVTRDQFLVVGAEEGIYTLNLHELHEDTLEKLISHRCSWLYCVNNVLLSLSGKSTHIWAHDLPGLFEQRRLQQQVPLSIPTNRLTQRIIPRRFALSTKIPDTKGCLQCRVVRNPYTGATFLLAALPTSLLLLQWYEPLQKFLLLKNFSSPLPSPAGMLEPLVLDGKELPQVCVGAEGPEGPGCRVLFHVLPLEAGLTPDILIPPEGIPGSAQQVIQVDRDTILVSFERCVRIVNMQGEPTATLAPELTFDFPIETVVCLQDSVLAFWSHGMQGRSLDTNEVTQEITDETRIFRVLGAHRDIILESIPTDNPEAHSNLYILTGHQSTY

TLK2 = TLK2 (Homo sapiens (Human), UniProt Q86UE8); conditions: TLK2, read-out: percent inhibition
IKKe, TBK1 = tested on: IKKe, TBK1
TLK1 = TLK1 (Homo sapiens (Human), UniProt Q9UKI8); conditions: TLK1, read-out: percent inhibition
PKR = PKR (Homo sapiens (Human), UniProt P19525); conditions: PKR, read-out: percent inhibition
MAP3K4 = MAP3K4 (Homo sapiens (Human), UniProt Q9Y6R4); conditions: MAP3K4, read-out: percent inhibition
AMPKa1 = AMPKa1 (Homo sapiens (Human), UniProt Q13131); conditions: AMPKa1, read-out: percent inhibition
AKT1 = AKT1 (Homo sapiens (Human), UniProt P31749); conditions: AKT1, read-out: percent inhibition
JAK2 domain2 = JAK2 domain2 (Homo sapiens (Human), UniProt O60674); conditions: JAK2 domain2, read-out: percent inhibition
JAK2 domain2, sequence (O60674 whole entry, the tested form may be a part): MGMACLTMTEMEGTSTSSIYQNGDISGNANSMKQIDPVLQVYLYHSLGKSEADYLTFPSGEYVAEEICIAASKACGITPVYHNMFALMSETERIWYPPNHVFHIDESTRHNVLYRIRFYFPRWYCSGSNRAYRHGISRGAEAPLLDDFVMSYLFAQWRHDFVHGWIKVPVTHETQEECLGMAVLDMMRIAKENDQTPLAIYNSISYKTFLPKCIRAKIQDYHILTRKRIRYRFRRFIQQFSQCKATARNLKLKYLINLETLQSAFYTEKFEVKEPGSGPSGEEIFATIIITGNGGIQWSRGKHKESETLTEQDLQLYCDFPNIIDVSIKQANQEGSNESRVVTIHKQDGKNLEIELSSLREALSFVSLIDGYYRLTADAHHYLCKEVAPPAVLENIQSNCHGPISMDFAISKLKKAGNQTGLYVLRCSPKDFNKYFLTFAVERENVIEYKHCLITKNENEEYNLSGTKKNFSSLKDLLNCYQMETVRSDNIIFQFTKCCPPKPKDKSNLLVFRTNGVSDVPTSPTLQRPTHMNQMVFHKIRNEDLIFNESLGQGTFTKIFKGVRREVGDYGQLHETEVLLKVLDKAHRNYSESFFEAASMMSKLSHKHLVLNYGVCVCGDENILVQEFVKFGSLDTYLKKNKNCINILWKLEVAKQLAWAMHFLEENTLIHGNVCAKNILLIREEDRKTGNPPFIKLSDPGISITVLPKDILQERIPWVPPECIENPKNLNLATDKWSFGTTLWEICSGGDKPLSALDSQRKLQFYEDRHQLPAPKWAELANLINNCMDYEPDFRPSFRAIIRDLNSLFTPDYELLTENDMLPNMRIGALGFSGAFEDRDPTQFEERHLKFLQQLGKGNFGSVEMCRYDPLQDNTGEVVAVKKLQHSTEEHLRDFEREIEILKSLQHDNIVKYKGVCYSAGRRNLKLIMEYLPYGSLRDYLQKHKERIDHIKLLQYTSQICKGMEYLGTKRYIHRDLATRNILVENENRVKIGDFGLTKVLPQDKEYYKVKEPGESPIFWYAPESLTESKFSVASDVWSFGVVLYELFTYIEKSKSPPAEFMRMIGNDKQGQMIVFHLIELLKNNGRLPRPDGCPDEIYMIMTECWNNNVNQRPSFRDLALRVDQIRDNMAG

PITSLRE = tested on: PITSLRE
LATS2 = LATS2 (Homo sapiens (Human), UniProt Q9NRM7); conditions: LATS2, read-out: percent inhibition
Wnk1, Wnk2, Wnk3 = tested on: Wnk1, Wnk2, Wnk3
eEF2K = eEF2K (Homo sapiens (Human), UniProt O00418); conditions: eEF2K, read-out: percent inhibition
BRAF = BRAF (Homo sapiens (Human), UniProt P15056); conditions: BRAF, read-out: percent inhibition
TAO2 = TAO2 (Homo sapiens (Human), UniProt Q9UL54); conditions: TAO2, read-out: percent inhibition
TBK1 = TBK1 (Homo sapiens (Human), UniProt Q9UHD2); conditions: TBK1, read-out: percent inhibition
FYN = FYN (Homo sapiens (Human), UniProt P06241); conditions: FYN, read-out: percent inhibition
FYN, sequence (P06241 whole entry): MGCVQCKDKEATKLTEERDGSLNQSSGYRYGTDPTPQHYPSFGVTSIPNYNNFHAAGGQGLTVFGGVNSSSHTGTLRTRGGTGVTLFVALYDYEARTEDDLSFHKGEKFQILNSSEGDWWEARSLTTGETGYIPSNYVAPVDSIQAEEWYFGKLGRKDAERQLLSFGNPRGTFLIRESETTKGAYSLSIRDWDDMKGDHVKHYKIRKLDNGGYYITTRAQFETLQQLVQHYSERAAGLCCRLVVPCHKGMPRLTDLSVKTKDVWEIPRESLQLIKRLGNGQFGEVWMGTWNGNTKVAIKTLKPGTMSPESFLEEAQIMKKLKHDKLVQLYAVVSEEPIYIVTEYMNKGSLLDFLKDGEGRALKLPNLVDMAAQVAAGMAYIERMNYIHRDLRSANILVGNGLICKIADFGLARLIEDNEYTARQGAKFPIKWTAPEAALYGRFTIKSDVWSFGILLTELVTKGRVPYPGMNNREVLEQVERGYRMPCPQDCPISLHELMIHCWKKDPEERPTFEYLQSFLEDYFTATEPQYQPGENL

IKKe = IKKe (Homo sapiens (Human), UniProt Q14164); conditions: IKKe, read-out: percent inhibition

## Cn1cc(-c2c[nH]c3ncnc(N4CCOCC4)c23)cn1 [Example 1, 5-(1-Methyl-1H-pyrazol-4-yl)-4-(morpholin-4-yl)-7H-pyrrolo[2,3-d]pyrimidine]
ABL, ARG; 0.1 μM
  percent inhibition: 25.8%
ABL, ARG; 1 μM
  percent inhibition: 22.5%
RIPK3; 0.1 μM
  inhibition at 0.1 µM: 5.6%
RIPK3; 1 μM
  inhibition at 1 µM: -4.2%
AMPKa1, AMPKa2; 0.1 μM
  percent inhibition: 10.8%
AMPKa1, AMPKa2; 1 μM
  percent inhibition: 49.7%
PIP4K2C; PIP4K2C (first line of two)
  inhibition at 0.1 µM: 1.4%
  inhibition at 1 µM: -1.4%
PIP4K2C; PIP4K2C (second line of two)
  inhibition at 0.1 µM: -48%
  inhibition at 1 µM: 0.9%
RSKL1 domain1; 0.1 μM
  inhibition at 0.1 µM: 5.5%
RSKL1 domain1; 1 μM
  inhibition at 1 µM: -0.2%
MAP2K6; 0.1 μM
  inhibition at 0.1 µM: 17.5%
MAP2K6; 1 μM
  inhibition at 1 µM: 19%
KSR1, KSR2; 0.1 μM
  percent inhibition: 1.5%
KSR1, KSR2; 1 μM
  percent inhibition: −14%
FYN, SRC, YES; 0.1 μM
  percent inhibition: −24.1%
FYN, SRC, YES; 1 μM
  percent inhibition: −56.3%
CaMK1a; 0.1 μM
  inhibition at 0.1 µM: 2%
CaMK1a; 1 μM
  inhibition at 1 µM: 6.3%
PCTAIRE2, PCTAIRE3; 0.1 μM
  percent inhibition: 7.5%
PCTAIRE2, PCTAIRE3; 1 μM
  percent inhibition: −2.5%
PIK3CD; 0.1 μM
  inhibition at 0.1 µM: -102%
PIK3CD; 1 μM
  inhibition at 1 µM: -65.4%
PIP5K3; 0.1 μM
  inhibition at 0.1 µM: 1.9%
PIP5K3; 1 μM
  inhibition at 1 µM: 15%
NuaK2; 0.1 μM
  inhibition at 0.1 µM: 3.6%
NuaK2; 1 μM
  inhibition at 1 µM: 8.9%
OSR1; 0.1 μM
  inhibition at 0.1 µM: -7.8%
OSR1; 1 μM
  inhibition at 1 µM: -4%
MST4, YSK1; 0.1 μM
  percent inhibition: −11.4%
MST4, YSK1; 1 μM
  percent inhibition: 15.1%
p38a; 0.1 μM
  inhibition at 0.1 µM: -23.5%
p38a; 1 μM
  inhibition at 1 µM: -19.8%
MLKL; 0.1 μM
  inhibition at 0.1 µM: 1.6%
MLKL; 1 μM
  inhibition at 1 µM: 8.4%
ZAP70; 0.1 μM
  inhibition at 0.1 µM: -23.2%
ZAP70; 1 μM
  inhibition at 1 µM: 3.1%
GCK; 0.1 μM
  inhibition at 0.1 µM: 4.4%
GCK; 1 μM
  inhibition at 1 µM: -6.7%
TLK2; 0.1 μM
  inhibition at 0.1 µM: -5.8%
TLK2; 1 μM
  inhibition at 1 µM: -21.1%
IKKe, TBK1; 0.1 μM
  percent inhibition: 1.5%
IKKe, TBK1; 1 μM
  percent inhibition: 23.7%
TLK1; 0.1 μM
  inhibition at 0.1 µM: 7.8%
TLK1; 1 μM
  inhibition at 1 µM: 2.7%
PKR; 0.1 μM
  inhibition at 0.1 µM: -4.3%
PKR; 1 μM
  inhibition at 1 µM: -17.3%
MAP3K4; 0.1 μM
  inhibition at 0.1 µM: -14%
MAP3K4; 1 μM
  inhibition at 1 µM: 6.9%
AMPKa1; 0.1 μM
  inhibition at 0.1 µM: 1.5%
AMPKa1; 1 μM
  inhibition at 1 µM: 27%
AKT1; 0.1 μM
  inhibition at 0.1 µM: 11.3%
AKT1; 1 μM
  inhibition at 1 µM: 18.8%
JAK2 domain2; 0.1 μM
  inhibition at 0.1 µM: 13.8%
JAK2 domain2; 1 μM
  inhibition at 1 µM: 16.7%
PITSLRE; 0.1 μM
  percent inhibition: −13%
PITSLRE; 1 μM
  percent inhibition: −3.2%
LATS2; 0.1 μM
  inhibition at 0.1 µM: 21.2%
LATS2; 1 μM
  inhibition at 1 µM: 11%
Wnk1, Wnk2, Wnk3; 0.1 μM
  percent inhibition: −18.8%
Wnk1, Wnk2, Wnk3; 1 μM
  percent inhibition: −24%
eEF2K; 0.1 μM
  inhibition at 0.1 µM: -9.6%
eEF2K; 1 μM
  inhibition at 1 µM: -6.5%
BRAF; 0.1 μM
  inhibition at 0.1 µM: -6.5%
BRAF; 1 μM
  inhibition at 1 µM: -51.5%
TAO2; 0.1 μM
  inhibition at 0.1 µM: -6.3%
TAO2; 1 μM
  inhibition at 1 µM: -24.2%
TBK1; 0.1 μM
  inhibition at 0.1 µM: 0.1%
TBK1; 1 μM
  inhibition at 1 µM: 13.4%
FYN; 0.1 μM
  inhibition at 0.1 µM: 6.7%
FYN; 1 μM
  inhibition at 1 µM: -10.1%
IKKe; 0.1 μM
  inhibition at 0.1 µM: 2.6%
IKKe; 1 μM
  inhibition at 1 µM: 17.7%
